In patent US20160237400A1, “ISOLATION OF NON-EMBRYONIC STEM CELLS AND USES THEREOF” (The Jackson Laboratory, priority 2013, published 2016):
Entries after “also recorded” stand apart in the source; their conditions may differ.

Tests used:
[1] = test system: paclitaxel resistant (G3) IC#1 CSC library; experiment: plate (colony formation) assay, paclitaxel-resistant CSC library; type: cell-based, human
Method: (§1) Survivors were re-plated en masse, and cycled through two additional rounds of 100 nM paclitaxel for 3 hours with recovery in between for 10 days, after which visible colonies were selected and individually expanded as pedigrees (FIG. 28B). To determine relationships between these ad hoc, paclitaxel-resistant pedigrees from the library and the 92 randomly sampled pedigrees from the treatment-naïve IC#1 library assessed for CSC heterogeneity, their CNV profiles were mapped onto the heterogeneity map established for IC#1.
The GSEA data in the table above highlighted the PGR pathway. Analysis of gene expression in the IC#1 CSC library treated with successive rounds of paclitaxel indeed confirmed a progressive increase in PGR expression (FIG. 31). […] The fate of 25,000 colony forming units from the IC#1 CSC library and the paclitaxel resistant library (G3) following exposure to combinations of paclitaxel, RU486, and cisplatin were directly compared. RU486 is a PGR antagonist that has previously been tested and failed as a single agent in clinical trials for recurrent ovarian cancer.
Next, the long-term impact of these drug combinations on the paclitaxel-resistant G3 pool over successive rounds of exposure was investigated.
(§2) High-grade ovarian cancer was surgically resected, and tumor tissue was collected into cold F12 media (Gibco, USA) with 5% fetal bovine serum (HyClone, USA) and then minced by sterile scalpel into 0.2-0.5 mm^3 sizes to a viscous and homogeneous appearance. The minced tissue was digested in 2 mg/mL collagenase type IV (Gibco, USA) at 37° C. for 30-60 min with agitation. Dissociated cells were passed through a 70 μm Nylon mesh (Falcon, USA) to remove aggregates and then were washed four times in cold F12 media, and then seeded onto a feeder layer of lethally irradiated 3T3-J2 cells in c-FAD media modified to SCM-68 media by the addition of 125 ng/mL R-spondin1 (R&D systems, USA), 1 μM Jagged-1 (AnaSpec Inc., USA), 100 ng/ml human Noggin (Peprotech, USA), 2.5 μM Rock-inhibitor (Calbiochem, USA), 2 μM SB431542 (Cayman chemical, USA), and 10 mM nicotinamide (Sigma-Aldrich, USA).
Cells were cultured at 37° C. in a 7.5% CO2 incubator. The culture media was replaced every two days. Colonies were digested by 0.25% trypsin-EDTA solution (Gibco, USA) for 5-8 min and passaged every 7 to 10 days. Colonies were trypsinized by TrypLE Express solution (Gibco, USA) for 8-15 min at 37° C. and cell suspensions were passed through 30 μm filters (Miltenyi Biotec, Germany). Approximately 20,000 epithelial cells were seeded to each well of 6-well plate. Cloning cylinder (Pyrex, USA) and high vacuum grease (Dow Corning, USA) were used to select single colonies for pedigrees. Gene expression analyses were performed on cells derived from passage 2-8 (P2-P8) cultures.

[2] = test system: CSC pedigrees sampled from Groups B, C, D, E, F and G of the IC#1 library; experiment: paclitaxel challenge of sampled CSC pedigrees of Groups B to G; type: cell-based, human
[3] = test system: CSCs from the IC#2 library; experiment: paclitaxel challenge of IC#2 CSCs; type: cell-based, human; details: parameters identical to IC#1 (100 nM, 3 hours, three rounds); 37 individual CSCs
[4] = test system: CSCs from the IC#1 library (G0), high-grade ovarian cancer; experiment: plate (colony formation) assay, rhodamine B stain, treatment-naive CSC library; type: cell-based, human
Method: To probe for paclitaxel resistance in the IC#1 library of CSCs, a paclitaxel dose-response curved were established by challenging 10,000 CSCs with a spectrum of paclitaxel concentrations. […] The plates were then stained with rhodamine B. Rhodamine B-stained 100 nM paclitaxel treatment plate yielded less than 0.1% of the control colonies.
as §1, §2
Cells were cultured at 37° C. in a 7.5% CO2 incubator. The culture media was replaced every two days. Colonies were digested by 0.25% trypsin-EDTA solution (Gibco, USA) for 5-8 min and passaged every 7 to 10 days. […]

[5] = test system: CD166hi CSC clones from the IC#1 library; experiment: drug challenge of CD166hi sorted CSC clones; type: cell-based, human; details: clones flow sorted for CD166 from the IC#1 library, individually tested
[6] = test system: N11 CSC pedigree (IC#1 library); experiment: paclitaxel challenge of sampled CSC pedigree N11; type: cell-based, human
[7] = test system: stem cell colonies (DASCp63/Krt5) from Krt6-DTR and WT mouse lung; type: cell-based
[8] = test system: Krt5+ / Krt6+ cells in lung of Krt6-DTR mice; details: in vivo

`CC(C)C[C@H](NC(=O)[C@H](Cc1ccccc1)NC(=O)c1cnccn1)B(O)O` [bortezomib] was tested, and the “effect towards resistant CSCs of IC#1 when used together with paclitaxel” value [1] was “synthetic lethality”.

`CC(C)C[C@H](NC(=O)[C@H](CCc1ccccc1)NC(=O)CN1CCOCC1)C(=O)N[C@@H](Cc1ccccc1)C(=O)N[C@@H](CC(C)C)C(=O)[C@@]1(C)CO1` [carfilzomib] was tested, and the “effect towards resistant CSCs of IC#1 when used together with paclitaxel” value [1] was “synthetic lethality”.

For `CC(=O)O[C@H]1C(=O)[C@@]2(C)[C@H]([C@H](OC(=O)c3ccccc3)[C@]3(O)C[C@H](OC(=O)[C@H](O)[C@@H](NC(=O)c4ccccc4)c4ccccc4)C(C)=C1C3(C)C)[C@]1(OC(C)=O)CO[C@@H]1C[C@@H]2O` [paclitaxel], the “resistance at the third round” value ([2]; CSCs within group B, third round of paclitaxel) was “less than 35%”, the “resistance to initial challenge” value ([2]; single dose of 100 nM paclitaxel, representative CSCs from the other six clusters) was “little or no resistance” and the “survival (colonies) of the paclitaxel-resistant G3 pool” value ([1]; 25,000 colony-forming units, G4 challenge) was 15%. The “resistance over four additional successive rounds of exposure, measured by colony formation” value ([1]; Ru486 10 μM, paclitaxel 100 nM, cisplatin 20 μM) was “progressive resistance”, the “survival of triple paclitaxel challenge” value [3] was “none of the 37 individual CSCs from the IC#2 library survived” and the “colonies relative to control colonies” value ([4]; 100 nM paclitaxel for 3 hours, about 10,000 colony-forming units, rhodamine B stain) was “less than 0.1%”. The “activity against the treatment naive IC#1 G0 library” value ([4]; 25,000 colony-forming units, single agent) was “strong activity”, the “resistance to initial challenge” value ([4]; single dose of 100 nM paclitaxel, IC#1 library) was “little or no resistance” and the “CD166hi clones tested with intrinsic resistance” value [5] was 21%. The “cells survived initial challenge” value ([6]; initial challenge, single dose of 100 nM paclitaxel) was 17.5% and the “resistance after two additional challenges” value ([6]; third round of paclitaxel) was ~100%.

For diphtheria toxin, the “fate of Krt6-DTR stem cell colonies on diphtheria toxin” value [7] was “die within four days; also recorded: dies after 4 days”, the “fate of control (WT) colonies on diphtheria toxin” value [7] was “continued to proliferate and expand in size; also recorded: looks normal” and the “sensitivity of Krt6 negative endothelial cells from Krt6-DTR mice” value [7] was “insensitive”. The “reduction of clonogenic cell number versus WT mouse with DT (clonogenic assay)” value [8] was 70-80%, the “loss of Krt5+ cells compared to wild type controls” value ([8]; mouse) was 90% and the “loss of Krt6+ cells compared to wild type controls” value ([8]; mouse) was “greater than 99%”. The “reduction of Krt5+ cell number versus WT (IF staining)” value ([8]; mouse, ip) was 70% and the “reduction of Krt6+ cell number versus WT (IF staining)” value ([8]; mouse, ip) was ~90%.
